From ChEMBL document CHEMBL4350985, “1,3-Dioxane as a scaffold for potent and selective 5-HT1AR agonist with in-vivo anxiolytic, anti-depressant and anti-nociceptive activity” (Eur J Med Chem, 2019) come the findings set out here.

Data set [1] has as its target T1, Alpha-1D adrenergic receptor (Rattus norvegicus) (UniProt P23944).
T1 sequence (whole entry): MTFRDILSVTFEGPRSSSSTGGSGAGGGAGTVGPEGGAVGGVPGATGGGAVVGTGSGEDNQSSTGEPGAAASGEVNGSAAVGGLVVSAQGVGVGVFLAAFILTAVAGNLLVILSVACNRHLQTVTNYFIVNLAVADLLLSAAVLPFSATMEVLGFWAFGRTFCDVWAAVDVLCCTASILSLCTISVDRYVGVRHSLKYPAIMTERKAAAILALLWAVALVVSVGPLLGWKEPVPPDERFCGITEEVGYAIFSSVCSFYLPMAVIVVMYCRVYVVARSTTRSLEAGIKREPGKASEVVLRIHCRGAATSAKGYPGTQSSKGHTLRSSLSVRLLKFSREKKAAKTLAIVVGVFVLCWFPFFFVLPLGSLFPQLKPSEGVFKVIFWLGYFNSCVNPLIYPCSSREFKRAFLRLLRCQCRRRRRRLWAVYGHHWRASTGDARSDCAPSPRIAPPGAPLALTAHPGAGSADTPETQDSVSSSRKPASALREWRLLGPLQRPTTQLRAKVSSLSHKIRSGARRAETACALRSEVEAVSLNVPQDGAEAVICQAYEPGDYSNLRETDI
Briefly: Antagonist activity at alpha-1d adrenergic receptor in Wistar rat thoracic aorta assessed as inhibition of (-)-noradrenaline-induced contractions.

Data set [2] has as its target T2, Alpha-1D adrenergic receptor (Homo sapiens, UniProt P25100).
T2 sequence (P25100 whole entry): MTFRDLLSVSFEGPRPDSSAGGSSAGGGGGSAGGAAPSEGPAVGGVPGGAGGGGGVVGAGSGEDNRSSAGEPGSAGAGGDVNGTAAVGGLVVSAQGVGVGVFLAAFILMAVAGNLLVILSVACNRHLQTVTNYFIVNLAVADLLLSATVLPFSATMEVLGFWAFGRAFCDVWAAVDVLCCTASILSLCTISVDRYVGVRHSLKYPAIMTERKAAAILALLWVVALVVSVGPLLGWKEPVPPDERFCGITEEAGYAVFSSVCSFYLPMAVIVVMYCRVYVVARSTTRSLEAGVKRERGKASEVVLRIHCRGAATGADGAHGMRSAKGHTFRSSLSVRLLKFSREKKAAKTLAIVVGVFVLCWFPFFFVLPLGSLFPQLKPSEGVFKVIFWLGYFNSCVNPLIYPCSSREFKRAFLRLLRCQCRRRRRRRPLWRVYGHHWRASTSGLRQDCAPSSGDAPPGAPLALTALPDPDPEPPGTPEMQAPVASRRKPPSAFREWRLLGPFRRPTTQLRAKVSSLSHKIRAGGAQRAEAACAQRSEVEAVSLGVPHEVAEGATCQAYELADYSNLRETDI
Briefly: biochemical.
Description: Displacement of [3H] prazosin from human cloned adrenoceptor alpha 1D expressed in CHO cell membrane incubated for 30 mins by liquid scintillation counter

Data set [3] can be described thus: AUC (0 to t) in Sprague-Dawley rat brain at 10 mg/kg, po measured upto 480 mins by LC/MS-MS analysis. Type of data set: ADME, organism-based. Conditions: in vivo, 8 h.
Data set [4] relates to SH-SY5Y. Briefly: Neuroprotective activity against H2O2-induced cell death in human SH-SY5Y cells at 0.1 uM incubated for 24 hrs by MTT assay. Type of data set: functional. Background: Tetrazolium assays rely on reduction of a dye to a coloured formazan, in cell work by metabolically active cells.
The subject of data set [5] is SH-SY5Y. Briefly: Cytotoxicity against human SH-SY5Y cells assessed as reduction in cell viability incubated for 24 hrs by MTT assay. In kind it is cell-based.
A short description of data set [6]: Half life in Sprague-Dawley rat brain at 10 mg/kg, po measured after 45 to 480 mins by LC/MS-MS analysis. Type of data set: ADME, organism-based.
Data set [7] can be described thus: AUC (0 to infinity) in Sprague-Dawley rat plasma at 10 mg/kg, po measured upto 480 mins by LC/MS-MS analysis. Set-up: dose 10 mg/kg, route oral, time infinity. As to conditions: in vivo, 8 h. Type of data set: ADME, organism-based.
Data set [8] concerns SH-SY5Y. Briefly: Neuroprotective activity against oligomycin A-induced cell death in human SH-SY5Y cells at 1 uM incubated for 24 hrs by MTT assay. Type of data set: functional.
Data set [9] deals with SH-SY5Y. Briefly: Neuroprotective activity against rotenone-induced cell death in human SH-SY5Y cells at 0.1 uM incubated for 24 hrs by MTT assay. In kind it is functional.
Data set [10] in a line: Half life in Sprague-Dawley rat brain at 10 mg/kg, po measured after 15 to 45 mins by LC/MS-MS analysis. In kind it is ADME, organism-based.
Data set [11] can be described thus: Ratio of drug level in brain to plasma in Sprague-Dawley rat at 10 mg/kg, po measured upto 480 mins by LC/MS-MS analysis. Type of data set: ADME, organism-based. As to conditions: read-out: BPR.
Data set [12] is described as follows: Efflux ratio of apparent permeability from basolateral to apical side over apical to basolateral side in dog MDCK2-MDR1 cells incubated for 120 mins by UV-visible spctrophotometry. Type of data set: ADME, cell-based, Canis lupus familiaris. Conditions: MDCK-MDR1.
Data set [13] relates to Rattus norvegicus. The data set is described as follows: Antidepressant activity in Sprague-Dawley rat assessed as time spent on climbing at 5 to 20 mg/kg, po by forced swim test. In kind it is functional, organism-based.
Data set [14] is described as follows: AUC (0 to t) in Sprague-Dawley rat plasma at 10 mg/kg, po measured upto 480 mins by LC/MS-MS analysis. In kind it is ADME, organism-based. Conditions: in vivo, 8 h.
A short description of data set [15]: Cmax in Sprague-Dawley rat brain at 10 mg/kg, po measured upto 480 mins by LC/MS-MS analysis. Conditions: in vivo, 8 h. The arrangement: dose 10 mg/kg, route oral. Type of data set: ADME, organism-based.
Data set [16] concerns Rattus norvegicus. The data set is described as follows: Anxiolytic activity at Sprague-Dawley rat assessed as increase in time spent in open arm at 10 mg/kg, po by EPM test relative to control. Type of data set: functional.
In data set [17] the test system is Rattus norvegicus. Briefly: Anxiolytic activity in at Sprague-Dawley rat assessed as increase in time spent in central area of open field at 10 mg/kg, po by open field test. Type of data set: functional, organism-based.
The nature of data set [18]: Tmax in Sprague-Dawley rat brain at 10 mg/kg, po measured upto 480 mins by LC/MS-MS analysis. Type of data set: ADME, organism-based.
A short description of data set [19]: Apparent permeability from basolateral to apical side in dog MDCK2-MDR1 cells incubated for 120 mins by UV-visible spectrophotometry. Conditions: MDCK-MDR1. Type of data set: ADME, cell-based, Canis lupus familiaris.
A short description of data set [20]: Cmax in Sprague-Dawley rat plasma at 10 mg/kg, po measured upto 480 mins by LC/MS-MS analysis. Type of data set: ADME, organism-based. The arrangement: dose 10 mg/kg, route oral.
For data set [21], the system named is Rattus norvegicus. The data set is described as follows: Antidepressant activity in Sprague-Dawley rat assessed as increase in time spent in swimming at 10 and 20 mg/kg, po by forced swim test. In kind it is functional, organism-based.
The subject of data set [22] is SH-SY5Y. Briefly: Neuroprotective activity against oligomycin A-induced cell death in human SH-SY5Y cells at 0.1 uM incubated for 24 hrs by MTT assay. In kind it is functional.
Data set [23] has as its system Mus musculus. The data set is described as follows: Antinociceptive activity in formalin-induced nociception pain Swiss […] mouse model assessed as decrease in perception of II phase of noxious stimulus at 10 mg/kg, ip by formalin test. Type of data set: functional, organism-based.
In data set [24] the test system is SH-SY5Y. The data set is described as follows: Neuroprotective activity against rotenone-induced cell death in human SH-SY5Y cells at 1 uM incubated for 24 hrs by MTT assay. In kind it is functional.
Data set [25] in a line: Ratio of compound t1/2 to 8-OH-DPAT t1/2 in Sprague-Dawley rat plasma at 10 mg/kg, po measured upto 480 mins by LC/MS-MS analysis. As to conditions: in vivo, 8 h. Type of data set: ADME, organism-based.
For data set [26], the system named is Mus musculus. Briefly: Antinociceptive activity in formalin-induced nociception pain Swiss […] mouse model assessed as perception of II phase of noxious stimulus at 10 mg/kg, ip co-administered with 3 mg/kg, ip 5-HT1AR antagonist WAY-100635 by formalin test. Type of data set: functional, organism-based.
For data set [27], the system named is Rattus norvegicus. Briefly: Anxiolytic activity in at Sprague-Dawley rat assessed as increase in number of entries into central area of open field at 10 mg/kg, po by open field test. In kind it is functional, organism-based.

Structures are written as SMILES. Active and inactive are the calls of the source.

Turning to `COc1ccccc1OCCNCC1CCOC(c2ccccc2)(c2ccccc2)O1` (configuration not stated), the pKb in data set [1] was 8.68. In data set [2], the Ki was 1.02 nM.
The corresponding values for `c1ccc(OCCNCC2COC(c3ccccc3)(c3ccccc3)OC2)cc1` are 6.76 and 178 nM.
As for `COc1ccccc1OCCNCC[C@H]1CO[C@H](C(c2ccccc2)c2ccccc2)O1` (relative stereo), the pKb in data set [1] worked out at 7.25. This compound also showed an inhibition constant (Ki) in data set [2] of 15.8 nM.
On to `COc1ccccc1OCCNCC1COC(c2ccccc2)(c2ccccc2)OC1.O=C(O)C(=O)O`, for which the figures for the AUCt in data set [3] and in [14] were 7167.6 nmol·min/g and 17.4 nmol·min/g, respectively. The Activity in data set [4] is on record as 89%; in [8], 83%; in data set [9], 63%; in data set [16] it was 20%; in data set [22], 69%; in data set [24], 61%. Besides, the IC50 in data set [5] was 31200 nM. Also, the figures for the half-life in data set [6] and in [10] were 2.37 h and 6.2 min, respectively. Further, in data set [7], the AUC was 18.1 nmol·min/g. The Kp at 8 h in [11] was 420. For the same compound, in data set [12], the efflux ratio at 2 h turned out to be 0.49. Further, the outcome in data set [13] was inactive. Further, the Cmax in [15] was 157.9 nmol/g; in data set [20], 95 nM. Besides, the outcome in data set [17], in data set [21] and in data set [27] was Active. Moreover, in data set [18], the Tmax is 1 h. Moreover, the Papp B→A at 2 h in [19] came out at 12.6 ×10⁻⁶ cm/s. In addition, in data set [1], the negative-log Kb (pKb) is 7.06. Moreover, the inhibition entry in data set [23] was “Active”. The Ki in data set [2] is 25.1 nM. Besides, the Ratio in data set [25] was 3. Also, the inhibition result in data set [26] is “inactive”.
Regarding `COc1ccccc1OCCNCCC1COC(c2ccccc2)(c2ccccc2)O1` (configuration not stated), the pKb in data set [1] worked out at 8.17. For the same compound, affinity in [2] was put at a Ki of 5.75 nM.
Turning to `c1ccc(OCCNCC2CCOC(c3ccccc3)(c3ccccc3)O2)cc1` (configuration not stated), the pKb in [1] was 7.55. For the same compound, the Ki in data set [2] is 5.01 nM.
The matching figures for `COc1ccccc1OCCNCCOC(c1ccccc1)c1ccccc1`: 7.75 and 10 nM.
As to `COc1ccccc1OCCNCC(CO)OC(c1ccccc1)c1ccccc1` (configuration not stated), the pKb in data set [1] amounted to 7.46. Further, the affinity in [2] corresponds to a Ki of 5.89 nM.
Take `COc1ccccc1OCCNCC[C@@H]1CO[C@H](C(c2ccccc2)c2ccccc2)O1` (relative stereo): the pKb in [1] turned out to be 7.67. In addition, the Ki in data set [2] is 16.6 nM.
The matching figures for `OCC(CNCCOc1ccccc1)OC(c1ccccc1)c1ccccc1` (configuration not stated): 7.07 and 57.5 nM.
As for `c1ccc(OCCNCCOC(c2ccccc2)c2ccccc2)cc1`, in data set [1], the pKb worked out at 7.73. The same compound had a Ki in data set [2] of 1.2 nM.

The term pKb denotes the Kb on a negative log10 scale, so that one unit is a factor of ten. What is called Ki is the equilibrium dissociation constant of an inhibitor or competing ligand from its target. Broadly, the IC50 is the concentration at which inhibition is half-maximal. The half-life is the time needed for the level to fall by half in the phase considered. Read a high half-life as slow decline. For orientation: efflux ratio means the permeability from basolateral to apical divided by that in the opposite direction, in the common usage. In general, Tmax refers to the time at which the peak concentration occurs. What is called Papp B→A is how fast a substance crosses the layer from the basolateral side.
